In PMC11018627, “KdpD is a tandem serine histidine kinase that controls K^+ pump KdpFABC transcriptionally and post-translationally” (Nature Communications, 2024):

Experiments:
KdpDNTD = molecular target: T1, KdpDNTD (Escherichia coli, UniProt P21865); test: in vitro phosphorylation of KdpB, phosphoprotein gel stain; type: biochemical; conditions: phosphate donor of serine kinase; 5 mM ATP, 400 mM KCl, room temperature, 30 min, KdpFABC (KdpB D307N) as protein substrate; no ATPase activity alone
T1 construct: gene kdpD

DgKdpD [1] = molecular target: T2, DgKdpD (Deinococcus geothermalis, UniProt Q1J2K3); test: as above; type: biochemical; conditions: phosphate donor of serine kinase; 5 mM ATP, 1 mM c-di-AMP, room temperature, 30 min, E. coli KdpFABC (KdpB D307N) as protein substrate
T2 construct: gene Dgeo_2852; short KdpD/Usp domain version, full chain; expressed in E. coli TK2281 from pBXC3H; His-tag removed with 3C protease on column

EcKdpD = molecular target: T3, EcKdpD (Escherichia coli, UniProt P21865); test: as above; type: biochemical; conditions: phosphate donor of serine kinase; 5 mM ATP, 400 mM KCl, room temperature, 30 min, KdpFABC (KdpB D307N) as protein substrate
T3 construct: gene kdpD; full-length, from pBXC3H (His-tag), produced in E. coli TK2281, purified in DDM or SMALPs
T3 sequence (P21865 1-894): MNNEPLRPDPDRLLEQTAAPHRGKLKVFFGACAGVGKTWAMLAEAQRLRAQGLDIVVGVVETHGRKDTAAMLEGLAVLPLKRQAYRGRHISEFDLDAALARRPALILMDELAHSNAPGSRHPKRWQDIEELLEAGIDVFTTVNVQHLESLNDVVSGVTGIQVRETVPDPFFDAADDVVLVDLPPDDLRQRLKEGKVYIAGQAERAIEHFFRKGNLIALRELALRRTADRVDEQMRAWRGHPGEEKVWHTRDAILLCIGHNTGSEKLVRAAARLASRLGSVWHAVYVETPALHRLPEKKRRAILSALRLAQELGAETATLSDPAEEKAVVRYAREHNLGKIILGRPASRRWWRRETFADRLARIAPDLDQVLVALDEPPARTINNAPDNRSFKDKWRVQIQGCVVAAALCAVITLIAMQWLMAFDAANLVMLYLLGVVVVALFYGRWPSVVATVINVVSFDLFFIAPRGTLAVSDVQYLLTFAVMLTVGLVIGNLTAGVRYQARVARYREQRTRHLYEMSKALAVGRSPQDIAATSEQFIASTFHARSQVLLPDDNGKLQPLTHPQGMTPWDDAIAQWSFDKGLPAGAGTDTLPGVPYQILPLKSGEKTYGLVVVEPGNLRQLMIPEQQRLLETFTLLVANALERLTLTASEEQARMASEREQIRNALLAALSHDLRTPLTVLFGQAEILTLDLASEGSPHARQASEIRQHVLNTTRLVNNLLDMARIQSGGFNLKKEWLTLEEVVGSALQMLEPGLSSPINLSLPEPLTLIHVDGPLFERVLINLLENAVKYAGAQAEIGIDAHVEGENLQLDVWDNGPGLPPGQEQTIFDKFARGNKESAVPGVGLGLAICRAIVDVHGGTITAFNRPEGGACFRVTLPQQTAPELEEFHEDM

KdpFABC = molecular target: T4, KdpFABC (Escherichia coli, UniProt P03960); conditions: 2 mM ATP, 1 mM KCl, 37 °C; non-phosphorylated complex purified from E. coli TK2281
T4 construct: gene kdpB

DgKdpD [2] = molecular target: T2, DgKdpD; test: in vitro phosphorylation of E. coli KdpB, phosphoprotein gel stain; type: biochemical; conditions: activator; 1 mM c-di-AMP, 5 mM ATP, E. coli KdpFABC (KdpB D307N) as protein substrate, room temperature, 30 min

T2 sequence (Q1J2K3 entry or part of it): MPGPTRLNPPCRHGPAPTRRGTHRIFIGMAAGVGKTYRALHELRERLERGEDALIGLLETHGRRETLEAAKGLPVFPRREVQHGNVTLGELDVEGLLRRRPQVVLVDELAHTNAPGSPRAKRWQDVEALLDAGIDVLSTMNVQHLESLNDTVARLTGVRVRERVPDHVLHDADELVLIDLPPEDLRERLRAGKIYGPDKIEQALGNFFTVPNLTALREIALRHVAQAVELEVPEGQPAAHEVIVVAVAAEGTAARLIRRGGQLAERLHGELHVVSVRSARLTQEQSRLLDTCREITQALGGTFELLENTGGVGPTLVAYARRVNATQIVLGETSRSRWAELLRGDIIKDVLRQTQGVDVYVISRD
T4 sequence (P03959 whole entry): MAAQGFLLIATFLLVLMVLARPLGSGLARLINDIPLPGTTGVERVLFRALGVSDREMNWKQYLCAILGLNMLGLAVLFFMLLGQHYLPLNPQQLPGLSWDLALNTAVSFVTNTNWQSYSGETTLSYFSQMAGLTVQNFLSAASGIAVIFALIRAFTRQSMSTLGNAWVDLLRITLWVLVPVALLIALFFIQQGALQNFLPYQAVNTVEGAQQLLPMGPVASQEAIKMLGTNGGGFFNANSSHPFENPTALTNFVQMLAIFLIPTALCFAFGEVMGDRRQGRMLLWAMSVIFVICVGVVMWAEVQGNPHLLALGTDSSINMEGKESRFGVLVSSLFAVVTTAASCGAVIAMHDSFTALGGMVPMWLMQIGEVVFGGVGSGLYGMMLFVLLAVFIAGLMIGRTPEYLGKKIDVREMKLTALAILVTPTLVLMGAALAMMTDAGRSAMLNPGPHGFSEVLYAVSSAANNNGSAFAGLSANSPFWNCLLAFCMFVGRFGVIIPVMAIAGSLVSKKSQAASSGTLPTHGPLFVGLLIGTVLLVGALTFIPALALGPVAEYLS
T4 sequence (P36937 whole entry, further chain): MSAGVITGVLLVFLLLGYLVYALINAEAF
T4 sequence (P03961 whole entry, further chain): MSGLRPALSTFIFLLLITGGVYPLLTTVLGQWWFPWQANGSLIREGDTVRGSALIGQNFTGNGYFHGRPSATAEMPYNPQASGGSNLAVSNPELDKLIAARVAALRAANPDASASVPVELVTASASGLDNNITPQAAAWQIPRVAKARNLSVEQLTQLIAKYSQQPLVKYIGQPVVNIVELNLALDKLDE
T4 sequence (P03960 whole entry): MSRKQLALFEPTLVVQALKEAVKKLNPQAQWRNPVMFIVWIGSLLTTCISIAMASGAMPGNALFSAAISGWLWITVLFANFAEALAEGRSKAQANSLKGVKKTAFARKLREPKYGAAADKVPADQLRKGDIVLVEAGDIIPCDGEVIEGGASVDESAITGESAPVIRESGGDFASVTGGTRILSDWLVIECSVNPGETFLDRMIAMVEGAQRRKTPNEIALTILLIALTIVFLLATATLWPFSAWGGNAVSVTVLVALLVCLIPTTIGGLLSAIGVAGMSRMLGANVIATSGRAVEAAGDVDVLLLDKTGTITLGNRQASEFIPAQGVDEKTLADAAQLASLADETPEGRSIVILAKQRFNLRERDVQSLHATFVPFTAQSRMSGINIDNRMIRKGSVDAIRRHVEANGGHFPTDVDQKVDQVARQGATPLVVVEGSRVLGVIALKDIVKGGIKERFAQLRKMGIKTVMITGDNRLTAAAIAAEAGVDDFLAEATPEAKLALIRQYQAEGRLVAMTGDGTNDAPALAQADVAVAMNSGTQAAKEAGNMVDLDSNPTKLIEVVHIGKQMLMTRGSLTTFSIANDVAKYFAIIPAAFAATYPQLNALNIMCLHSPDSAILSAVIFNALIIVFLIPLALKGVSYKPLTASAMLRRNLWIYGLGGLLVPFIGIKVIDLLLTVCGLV

Row | SMILES | in vitro phosphorylation of KdpB, phosphoprotein gel stain (KdpDNTD) | in vitro phosphorylation of KdpB, phosphoprotein gel stain (DgKdpD [1]) | in vitro phosphorylation of KdpB, phosphoprotein gel stain (EcKdpD) | malachite green ATPase assay (KdpFABC) | stimulation of ASK activity at 1 mM (DgKdpD [2])
1 | Nc1ncnc2c1ncn2[C@@H]1O[C@H](COP(=O)(O)OP(=O)(O)OP(=O)(O)O)[C@@H](O)[C@H]1O [ATP] | This truncated construct remained able to phosphorylate KdpB | DgKdpD can phosphorylate E. coli KdpB | Upon incubation with full-length KdpD, the phosphorylation was fully restored | KdpFABC produced under these conditions showed a high ATPase activity | 
2 | Nc1ncnc2c1ncn2[C@@H]1O[C@@H]2COP(=O)(O)O[C@H]3[C@@H](O)[C@H](n4cnc5c(N)ncnc54)O[C@@H]3COP(=O)(O)O[C@H]2[C@H]1O [c-di-AMP] |  |  |  |  | phosphorylation of E. coli KdpB by DgKdpD was stimulated in the presence of c-di-AMP
